The values below come from patent US8710043B2, “TRPM8 antagonists and their use in treatments” (Amgen Inc., priority 2011, dated 2014).

Counter-ions that a name gives are not always drawn.

The target in the assay is T1, human TRPM8 (Homo sapiens, UniProt Q7Z2W7).
T1 construct: expressed in transfected cells; host or cells: Chinese hamster ovary (CHO) cells, T-REx tetracycline-inducible system, co-transfected with aequorin
T1 sequence (Q7Z2W7 whole entry): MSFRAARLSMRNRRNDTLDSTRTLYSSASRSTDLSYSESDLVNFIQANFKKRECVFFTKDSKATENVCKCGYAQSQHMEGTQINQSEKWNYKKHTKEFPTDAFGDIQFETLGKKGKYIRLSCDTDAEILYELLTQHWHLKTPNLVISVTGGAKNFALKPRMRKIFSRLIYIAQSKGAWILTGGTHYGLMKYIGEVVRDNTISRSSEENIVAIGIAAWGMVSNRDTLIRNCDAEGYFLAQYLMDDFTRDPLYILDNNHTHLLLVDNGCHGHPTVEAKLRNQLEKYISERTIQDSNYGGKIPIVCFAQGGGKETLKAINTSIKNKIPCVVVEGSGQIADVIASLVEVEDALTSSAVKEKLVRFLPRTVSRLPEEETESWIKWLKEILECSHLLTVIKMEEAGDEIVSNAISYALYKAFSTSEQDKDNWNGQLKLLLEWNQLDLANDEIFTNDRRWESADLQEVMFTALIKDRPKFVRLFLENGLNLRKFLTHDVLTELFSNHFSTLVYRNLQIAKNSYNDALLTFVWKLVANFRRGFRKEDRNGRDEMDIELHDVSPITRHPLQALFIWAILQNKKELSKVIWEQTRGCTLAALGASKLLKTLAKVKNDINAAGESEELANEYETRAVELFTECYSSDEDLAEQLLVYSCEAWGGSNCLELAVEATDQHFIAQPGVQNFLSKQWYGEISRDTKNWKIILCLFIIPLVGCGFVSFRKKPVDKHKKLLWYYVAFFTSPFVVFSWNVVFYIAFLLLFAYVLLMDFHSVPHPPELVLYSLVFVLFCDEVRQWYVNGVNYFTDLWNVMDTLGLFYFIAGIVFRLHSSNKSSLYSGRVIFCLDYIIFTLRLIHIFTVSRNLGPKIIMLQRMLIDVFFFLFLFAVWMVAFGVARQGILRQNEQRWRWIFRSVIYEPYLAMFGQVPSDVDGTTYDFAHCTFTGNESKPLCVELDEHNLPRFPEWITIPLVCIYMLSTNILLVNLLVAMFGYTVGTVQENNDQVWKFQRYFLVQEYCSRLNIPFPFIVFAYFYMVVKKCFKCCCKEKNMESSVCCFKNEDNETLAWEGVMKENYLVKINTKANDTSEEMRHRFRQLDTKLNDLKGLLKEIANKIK
Kind of assay: Luminescence readout assay for measuring intracellular calcium, icilin activation. It counts as cell-based. Conditions: CHO cells expressing human TRPM8, aequorin luminescence, 1 μM icilin activation; read-out: hTRPM8 IC50. The procedure, abridged: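 The read-out was luminescence reporting intracellular calcium, recorded by a CCD-based luminometer. Compounds were preincubated for 2.5 min before agonist challenge with 1 μM icilin. Human TRPM8 was expressed in a stable T-REx CHO line, induced with 0.5 μg/mL tetracycline the day before.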
Consider `O=C(CN1CCOC1=O)N[C@@H](c1ccc(C(F)(F)F)cc1)c1ncccc1C(F)(F)F` [Example 154, (S)-2-(2-oxooxazolidin-3-yl)-N-((4-(trifluoromethyl)phenyl)(3-(trifluoromethyl)pyridin-2-yl)methyl)acetamide], for which the IC50 was 2.53 µM. Take `O=C(Cc1ccccc1OC(F)(F)F)N[C@@H](c1ccc(C(F)(F)F)cc1)c1ncccc1C(F)(F)F` [Example 164]: the IC50 is 0.294 µM. The same measure for `O=C(N[C@@H](c1ccc(C(F)(F)F)cc1)c1ncccc1F)c1ccc(=O)n(CC(F)(F)F)c1` [Example 372, (S)-N-((3-fluoropyridin-2-yl)(4-(trifluoromethyl)phenyl)methyl)-6-oxo-1-(2,2,2-trifluoroethyl)-1,6-dihydropyridine-3-carboxamide]: 0.0894 µM; for `CN(C)c1ccc(C(=O)N[C@@H](c2ccc(C(F)(F)F)cc2)c2ncccc2C(F)(F)F)cn1` [Example 262, (S)-6-(Dimethylamino)-N-((4-(trifluoromethyl)phenyl)(3-(trifluoromethyl)pyridin-2-yl)methyl)nicotinamide]: 0.114 µM. Under `O=C(O)c1cncc(C(=O)N[C@@H](c2ccc(C(F)(F)F)cc2)c2ncccc2C(F)(F)F)c1` [Example 226, (S)-5-(((4-(trifluoromethyl)phenyl)(3-(trifluoromethyl)pyridin-2-yl)methyl)carbamoyl)nicotinic acid] stands 2.31 µM. With `CS(=O)(=O)c1ccc(C(=O)N[C@@H](c2ccc(C(F)(F)F)cc2)c2ncccc2F)cc1` [Example 217, (S)-N-((3-fluoropyridin-2-yl)(4-(trifluoromethyl)phenyl)methyl)-4-(methylsulfonyl)benzamide], the concentration for half-maximal inhibition (IC50) is 0.147 µM.

`O=C(NC(c1ccc(Cl)c(Cl)c1)c1ccccn1)c1ccc2cnccc2c1` (centres unmarked) [Example 247, N-((3,4-dichlorophenyl)(pyridin-2-yl)methyl)isoquinoline-6-carboxamide bis-hydrochloride]: the 50% inhibitory concentration (IC50) amounted to 0.0427 µM. Under `Cn1cc(C(=O)N[C@@H](c2ccc(C(F)(F)F)cc2)c2ncccc2C(F)(F)F)ccc1=O` [Example 50, (S)-1-methyl-6-oxo-N-((4-(trifluoromethyl)phenyl)(3-(trifluoromethyl)pyridin-2-yl)methyl)-1,6-dihydropyridine-3-carboxamide] stands 0.0105 µM.

Turning to `CC#Cc1cccnc1[C@@H](NC(=O)c1ccc(OC)nc1)c1ccc(C(F)(F)F)cc1` [Example 96, (S)-6-methoxy-N-((3-(prop-1-yn-1-yl)pyridin-2-yl)(4-(trifluoromethyl)phenyl)methyl)nicotinamide], the IC50 was found to be 0.0376 µM. The same measure for `Cc1nc2cc(C(=O)N[C@@H](c3ccc(C(F)(F)F)cc3)c3ncccc3F)ccc2[nH]1` [Example 397, (S)-N-((3-fluoropyridin-2-yl)(4-(trifluoromethyl)phenyl)methyl)-2-methyl-1H-benzo[d]imidazole-5-carboxamide]: 0.0103 µM; for `O=C(N[C@@H](c1ccc(OC(F)(F)F)c(F)c1)c1ncccc1F)c1c[nH]c(=O)c(C(F)(F)F)c1` [Example 402, (S)-N-((3-fluoro-4-(trifluoromethoxy)phenyl)(3-fluoropyridin-2-yl)methyl)-6-oxo-5-(trifluoromethyl)-1,6-dihydropyridine-3-carboxamide]: 0.12 µM.

`CC(C)c1ccc(C(=O)N[C@@H](c2ccc(C(F)(F)F)cc2)c2ncccc2C(F)(F)F)cc1` [Example 127, (S)-4-isopropyl-N-((4-(trifluoromethyl)phenyl)(3-(trifluoromethyl)pyridin-2-yl)methyl)benzamide]: the half-inhibitory concentration (IC50) worked out at 0.584 µM. Under `O=C(N[C@@H](c1ccc(C(F)(F)F)cc1)c1ncccc1F)c1cc2n(n1)CCCO2` [Example 320, (S)-N-((3-fluoropyridin-2-yl)(4-(trifluoromethyl)phenyl)methyl)-6,7-dihydro-5H-pyrazolo[5,1-b][1,3]oxazine-2-carboxamide] stands 0.132 µM; under `O=C(N[C@@H](c1ccc(OC(F)(F)F)c(F)c1)c1ncccc1F)c1ccc(=O)n(C(F)F)c1` [Example 399, (S)-1-(difluoromethyl)-N-((3-fluoro-4-(trifluoromethoxy)phenyl)(3-fluoropyridin-2-yl)methyl)-6-oxo-1,6-dihydropyridine-3-carboxamide], 0.0165 µM; under `Cc1ncncc1C(=O)N[C@@H](c1ccc(C(F)(F)F)cc1)c1ncccc1C(F)(F)F` [Example 60, (S)-4-methyl-N-((4-(trifluoromethyl)phenyl)(3-(trifluoromethyl)pyridin-2-yl)methyl)pyrimidine-5-carboxamide], 0.0784 µM. The same measure for `O=C(N[C@@H](c1cnc2cccc(Cl)c2c1)c1ncccc1C(F)(F)F)c1ccc2cccnc2c1` [Example 9, (S)-N-((5-chloroquinolin-3-yl)(3-(trifluoromethyl)pyridin-2-yl)methyl)quinoline-7-carboxamide]: 0.146 µM.

Turning to `CO[C@@](C(=O)N[C@@H](c1ccc(C(F)(F)F)cc1)c1ncccc1C(F)(F)F)(c1ccccc1)C(F)(F)F` [Example 237, 3,3,3-trifluoro-2-methoxy-2-phenyl-N-((S)-(4-(trifluoromethyl)phenyl)(3-(trifluoromethyl)pyridin-2-yl)methyl)propanamide], the IC50 turned out to be 0.733 µM. The same measure for `CCn1cc(C(=O)N[C@@H](c2ccc(C(F)(F)F)cc2)c2ncccc2F)ccc1=O` [Example 364, (S)-1-ethyl-N-((3-fluoropyridin-2-yl)(4-(trifluoromethyl)phenyl)methyl)-6-oxo-1,6-dihydropyridine-3-carboxamide]: 0.0158 µM; for `Cc1cccnc1[C@@H](NC(=O)c1ccc(=O)n(C)c1)c1ccc(OC(F)(F)F)cc1` [Example 360, (S)-1-methyl-N-((3-methylpyridin-2-yl)(4-(trifluoromethoxy)phenyl)methyl)-6-oxo-1,6-dihydropyridine-3-carboxamide]: 0.02 µM; for `Cn1ccnc1C(=O)N[C@@H](c1ccc(C(F)(F)F)cc1)c1ncccc1C(F)(F)F` [Example 146, (S)-1-methyl-N-((4-(trifluoromethyl)phenyl)(3-(trifluoromethyl)pyridin-2-yl)methyl)-1H-imidazole-2-carboxamide]: 0.18 µM. The same measure for `O=C(N[C@@H](c1ccc(C(F)(F)F)cc1)c1ncccc1C(F)(F)F)c1ccccn1` [Example 228, (S)-N-((4-(trifluoromethyl)phenyl)(3-(trifluoromethyl)pyridin-2-yl)methyl)picolinamide]: 0.0397 µM; for `COc1cnccc1C(=O)N[C@@H](c1ccc(C(F)(F)F)cc1)c1ncccc1C(F)(F)F` [Example 48, (S)-3-methoxy-N-((4-(trifluoromethyl)phenyl)(3-(trifluoromethyl)pyridin-2-yl)methyl)isonicotinamide]: 0.0215 µM. The same measure for `CC#Cc1cccnc1[C@@H](NC(=O)c1ccc2ncccc2c1)c1ccc(C(F)(F)F)cc1` [Example 93, (S)-N-((3-(prop-1-yn-1-yl)pyridin-2-yl)(4-(trifluoromethyl)phenyl)methyl)quinoline-6-carboxamide]: 0.0178 µM. `O=C(N[C@@H](c1ccc(C(F)(F)F)cc1)c1ncccc1C(F)(F)F)c1ccc(I)cc1` [Example 122, (S)-4-iodo-N-((4-(trifluoromethyl)phenyl)(3-(trifluoromethyl)pyridin-2-yl)methyl)benzamide]: the IC50 was found to be 0.107 µM. Under `CC1(C)C[C@H]1c1cccnc1[C@@H](NC(=O)c1ccc2cccnc2c1)c1ccc(C(F)(F)F)cc1` [Example 232, N-((S)-(3-((R)-2,2-dimethylcyclopropyl)pyridin-2-yl)(4-(trifluoromethyl)phenyl)methyl)quinoline-7-carboxamide] stands 0.0159 µM. For `O=C(N[C@@H](c1ccc(C(F)(F)F)cc1)c1ncccc1C(F)(F)F)c1ccc2c(c1)NCCC2` [Example 274, (S)—N-((4-(Trifluoromethyl)phenyl)(3-(trifluoromethyl)pyridin-2-yl)methyl)-1,2,3,4-tetrahydroquinoline-7-carboxamide], the IC50 stood at 0.198 µM. Under `COc1cccc(C(=O)N[C@@H](c2ccc(C(F)(F)F)cc2)c2ncccc2C(F)(F)F)c1` [Example 191, (S)-3-methoxy-N-((4-(trifluoromethyl)phenyl)(3-(trifluoromethyl)pyridin-2-yl)methyl)benzamide] stands 0.0789 µM; under `Cc1cccnc1[C@@H](NC(=O)c1ccc2nccn2c1)c1ccc(C(F)(F)F)cc1` [Example 314, (S)-N-((3-methylpyridin-2-yl)(4-(trifluoromethyl)phenyl)methyl)imidazo[1,2-a]pyridine-6-carboxamide], 0.0218 µM. Under `CCCc1cccnc1[C@@H](NC(=O)c1ccc(=O)[nH]c1)c1ccc(C(F)(F)F)cc1` [Example 267, (S)-6-Oxo-N-((3-propylpyridin-2-yl)(4-(trifluoromethyl)-phenyl)methyl)-1,6-dihydropyridine-3-carboxamide] stands 0.0099 µM; under `O=C(N[C@@H](c1ccc2ncccc2c1)c1ncccc1C(F)(F)F)c1ccc2cccnc2c1` [Example 22, (S)-N-(quinolin-6-yl(3-(trifluoromethyl)pyridin-2-yl)methyl)quinoline-7-carboxamide], 0.418 µM; under `O=C(N[C@@H](c1ccc(C(F)(F)F)cc1)c1ncccc1C(F)(F)F)c1ccc2c(c1)C(=O)NC2` [Example 265, (S)-3-oxo-N-((4-(trifluoromethyl)phenyl)(3-(trifluoromethyl)-pyridin-2-yl)methyl)isoindoline-5-carboxamide], 0.0622 µM.

Take `O=C(O)c1cccc(C(=O)N[C@@H](c2ccc(OC(F)(F)F)c(F)c2)c2ncccc2F)n1` [Example 415, (S)-6-(((3-fluoro-4-(trifluoromethoxy)phenyl)(3-fluoropyridin-2-yl)methyl)carbamoyl)picolinic acid trifluoroacetate]: the IC50 is 0.648 µM.
